The values below come from ChEMBL document CHEMBL1201862, “PubChem BioAssay data set” (2004).

Among the test systems are 786-0; CAKI-1; HCC 2998; HCT-116; HT-29; Hs-578T; MDA-MB-231; MDA-N; OVCAR-4; OVCAR-5; OVCAR-8; SF-268; SF-295; SF-539; SNB-75; U-251; HOP-92; NCI-H522; SK-MEL-5; SR.
Test in all cases: NCI tumour cell line growth inhibition, 48 h

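Interpolation was linear, between the two tested concentrations surrounding the appropriate level; five concentrations were tested over 48 hours in 96-well plates. Abbreviation: GI50, concentration required for 50% inhibition of growth.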 Activity calls are given as the source filed them. Rule as the data show it: active = GI50 up to about 1.1 µM and inactive = higher. Where only a bound is given, the exact number is not on record here.

Consider `O=c1[nH]nc(-c2ccccc2)n1/N=C/c1cccs1`, for which the GI50 in the assay on 786-0 is 91.4 µM (inactive); with CAKI-1, > 100 µM (inactive); with HCC 2998, > 100 µM (inactive); in the assay with HCT-116, 36.7 µM (inactive); in the assay with HT-29 it was 65.5 µM (inactive); in the assay with Hs-578T it was 56 µM (inactive). For the same molecule, the GI50 in the assay with MDA-MB-231 is > 100 µM (inactive); with MDA-N it was 74.8 µM (inactive); with OVCAR-4, 21.7 µM (inactive); with OVCAR-5, > 100 µM (inactive); in the assay on OVCAR-8, 37.4 µM (inactive); in the assay with SF-268, > 100 µM (inactive). Besides, the GI50 was 72.3 µM (inactive) in the assay on SF-295, 95.5 µM (inactive) in the assay on SF-539, 49.7 µM (inactive) in the assay with SNB-75 and > 100 µM (inactive) in the assay with U-251.
Turning to `COC(=O)c1cnc(Cl)cn1`, the GI50 with 786-0 is > 100 µM (inactive); in the assay on CAKI-1, 17.5 µM (inactive); in the assay with HCT-116 it was 38.2 µM (inactive); with HOP-92, 28.4 µM (inactive); with HT-29, 54.3 µM (inactive); with Hs-578T, 50.6 µM (inactive). Further, the GI50 was 71.8 µM (inactive) in the assay on MDA-MB-231; 2.49 µM (inactive) in the assay on NCI-H522; 20.2 µM (inactive) in the assay on OVCAR-4; 58.3 µM (inactive) with OVCAR-5; 73.5 µM (inactive) in the assay with OVCAR-8; 49 µM (inactive) in the assay on SF-268. For the same molecule, the GI50 was > 100 µM (inactive) in the assay on SF-295; 74.3 µM (inactive) in the assay with SF-539; 59.2 µM (inactive) with SK-MEL-5; 90.4 µM (inactive) with SNB-75; 42.5 µM (inactive) in the assay on SR; 34.9 µM (inactive) with U-251.
Regarding `COC(=O)/C=C/c1ccccc1N=[S@](C)(=O)c1ccc(C)cc1`, the GI50 was 27.9 µM (inactive) in the assay with 786-0; 15 µM (inactive) in the assay with CAKI-1; 24.2 µM (inactive) in the assay with HCC 2998; 15.3 µM (inactive) with HCT-116; 35 µM (inactive) in the assay with HOP-92; 7.93 µM (inactive) in the assay on HT-29. In addition, the GI50 is 18.7 µM (inactive) in the assay on Hs-578T; 23.8 µM (inactive) in the assay on MDA-MB-231; 2.86 µM (inactive) with NCI-H522; 26.1 µM (inactive) in the assay on OVCAR-4; 36.1 µM (inactive) with OVCAR-5; 28.5 µM (inactive) with OVCAR-8. Besides, the GI50 is 29.4 µM (inactive) in the assay on SF-268; 5.96 µM (inactive) in the assay on SF-295; 21.8 µM (inactive) in the assay with SF-539; 5.62 µM (inactive) in the assay on SK-MEL-5; 6.21 µM (inactive) with SNB-75; 3.49 µM (inactive) in the assay on SR. Further, in the assay with U-251, the GI50 is 17.7 µM (inactive).
Consider `CC(=O)OCC1OC(n2c(-c3ccccc3)c(/N=N/c3ccc(C)cc3)c(C)c(C#N)c2=S)C(OC(C)=O)C(OC(C)=O)C1OC(C)=O` (stereo unspecified), for which the GI50 is 3.55 µM (inactive) in the assay on 786-0; 22.9 µM (inactive) with CAKI-1; 22.7 µM (inactive) with HCC 2998; 3.26 µM (inactive) with HCT-116; 0.0257 µM (active) in the assay with HOP-92; 12.8 µM (inactive) with HT-29. For the same molecule, the GI50 is 17.7 µM (inactive) with MDA-MB-231; 7.36 µM (inactive) with MDA-N; 5.87 µM (inactive) in the assay on OVCAR-4; 23.7 µM (inactive) in the assay with OVCAR-5; 9.04 µM (inactive) with SF-268; 23.6 µM (inactive) in the assay with SF-295. The results for the GI50 in the assay on SR and with U-251 were 8.99 µM (inactive) and 14.9 µM (inactive), respectively.
`COc1nc2c(c(=O)[nH]1)N=C(c1ccc(Cl)cc1)CC(c1ccccc1)N2` (stereo unspecified): the GI50 in the assay on 786-0 was 37.6 µM (inactive); in the assay with CAKI-1, 28.2 µM (inactive); in the assay with HCC 2998, 34 µM (inactive); in the assay with HCT-116 it was 34.3 µM (inactive); in the assay with HOP-92, 24.1 µM (inactive); in the assay on HT-29 it was 34.5 µM (inactive). Further, the GI50 with MDA-MB-231 is 23.8 µM (inactive); in the assay with MDA-N it was 31 µM (inactive); with NCI-H522 it was 20.3 µM (inactive); with OVCAR-4, 22.7 µM (inactive); in the assay on OVCAR-5, 49.9 µM (inactive); with OVCAR-8 it was 21.2 µM (inactive). Also, the GI50 in the assay on SF-295 is 23.1 µM (inactive); in the assay with SF-539, 21.6 µM (inactive); in the assay on SK-MEL-5, 17.6 µM (inactive); in the assay with SNB-75, 20.8 µM (inactive); in the assay on SR, 61.4 µM (inactive); in the assay with U-251, 35.6 µM (inactive).
On to `C/C=C/c1c(O)c(=O)c2c(OC)cc(OC)c3c4c(OC)cc(OC)c5c(=O)c(O)c(/C=C/C)c(c1c23)c54`, for which the GI50 with 786-0 is 14.9 µM (inactive); in the assay with CAKI-1 it was 6.14 µM (inactive); in the assay with HCC 2998, 16.6 µM (inactive); in the assay with HCT-116 it was 4.84 µM (inactive); in the assay with HOP-92 it was 14.4 µM (inactive); in the assay on HT-29, 6.22 µM (inactive). The GI50 in the assay with MDA-MB-231 is 10.4 µM (inactive); in the assay with MDA-N, 6.87 µM (inactive); with NCI-H522, 4.71 µM (inactive); in the assay with OVCAR-4 it was 13 µM (inactive); in the assay on OVCAR-5, 20.5 µM (inactive); in the assay with OVCAR-8, 6.35 µM (inactive). For the same molecule, the GI50 with SF-268 is 7.66 µM (inactive); in the assay with SF-295, 44.5 µM (inactive); with SF-539, 3.61 µM (inactive); in the assay on SK-MEL-5 it was 5.73 µM (inactive); in the assay with SNB-75, 12.2 µM (inactive); in the assay on SR, > 100 µM (inactive). Also, the GI50 in the assay on U-251 is 7.23 µM (inactive).
On to `COc1ccc2oc(=N)c(C(=O)Nc3ccccn3)cc2c1`, for which the GI50 in the assay on 786-0, with CAKI-1, in the assay with HCC 2998, in the assay with HCT-116, in the assay with HOP-92 and in the assay on HT-29 was > 100 µM (inactive) throughout. Moreover, the GI50 with Hs-578T, in the assay with MDA-MB-231, in the assay with OVCAR-4, with OVCAR-5, in the assay with OVCAR-8 and in the assay with SF-268 was > 100 µM (inactive) in each case. Also, the GI50 in the assay on SK-MEL-5, with SNB-75, with SR and with U-251 was > 100 µM (inactive) each time.
`CC(C)(C)c1cc(C(=O)/C=C/C=C/c2ccccc2)cc(C(C)(C)C)c1O`: the GI50 in the assay on 786-0 was 17.1 µM (inactive); with CAKI-1, 29 µM (inactive); with HCC 2998 it was 14 µM (inactive); in the assay on HCT-116, 18.2 µM (inactive); in the assay on HOP-92, 42.2 µM (inactive); in the assay with HT-29, 22.9 µM (inactive). The GI50 is 25.7 µM (inactive) with Hs-578T; 19.4 µM (inactive) in the assay on MDA-MB-231; 10.3 µM (inactive) with NCI-H522; > 51.5 µM (inactive) with OVCAR-4; 36.7 µM (inactive) in the assay on OVCAR-5; 19.5 µM (inactive) in the assay on OVCAR-8. In addition, the GI50 in the assay with SF-268 is 25.2 µM (inactive); in the assay with SF-295, 27.2 µM (inactive); with SF-539, 14.5 µM (inactive); in the assay on SK-MEL-5 it was 11.3 µM (inactive); in the assay with SNB-75 it was 14.7 µM (inactive); in the assay on SR, 3.24 µM (inactive). Moreover, the GI50 in the assay with U-251 was 14.2 µM (inactive).
On to `N#CC1(C#N)C2C=CC(C3CC=CC32)C1(C#N)C#N` (stereo unspecified), for which the GI50 with 786-0 was 1.79 µM (inactive); with CAKI-1, 2.08 µM (inactive); in the assay on HCC 2998, > 50 µM (inactive); with HCT-116, 1.93 µM (inactive); with HOP-92, 4.27 µM (inactive); with HT-29, 9.71 µM (inactive). For the same molecule, the GI50 was 17.9 µM (inactive) with Hs-578T; 9.79 µM (inactive) with MDA-MB-231; 1.22 µM (inactive) in the assay on NCI-H522; 4.01 µM (inactive) with OVCAR-4; 8.39 µM (inactive) in the assay with OVCAR-5; 4.72 µM (inactive) in the assay on OVCAR-8. For the same molecule, the GI50 in the assay with SF-268 was 11.2 µM (inactive); with SF-295, 21.5 µM (inactive); with SF-539, 9.66 µM (inactive); in the assay on SK-MEL-5, 7.73 µM (inactive); in the assay with SNB-75 it was > 10 µM (inactive); in the assay on SR it was 2.29 µM (inactive). The GI50 with U-251 was 10.4 µM (inactive).
`O=C(Cc1ccccc1)NN1C(=O)/C(=C\c2ccccc2O)S/C1=N\c1ccccc1`: the GI50 with 786-0 is > 100 µM (inactive); with HCC 2998 it was > 100 µM (inactive); in the assay with HCT-116 it was > 100 µM (inactive); with HOP-92, 39.3 µM (inactive); in the assay with HT-29, > 100 µM (inactive); with Hs-578T, > 100 µM (inactive). The GI50 with MDA-MB-231, in the assay with MDA-N, in the assay with OVCAR-4, in the assay with OVCAR-5, in the assay on OVCAR-8 and in the assay on SF-268 was > 100 µM (inactive) in each case. Further, the GI50 in the assay with SF-295, in the assay with SF-539, in the assay with SK-MEL-5, with SNB-75 and with U-251 was > 100 µM (inactive) each time.
As to `CCOC(=O)Cc1[nH]c(C(=O)c2ccccc2)cc1C(=O)c1ccccc1`, the GI50 in the assay on 786-0 was > 10 µM (inactive); in the assay on HCC 2998 it was 50.4 µM (inactive); in the assay on HCT-116, 17.5 µM (inactive); with HT-29, > 10 µM (inactive); in the assay on Hs-578T, > 100 µM (inactive); with MDA-MB-231, > 10 µM (inactive). In addition, the GI50 was 52.5 µM (inactive) in the assay with NCI-H522; 18.3 µM (inactive) with OVCAR-4; > 10 µM (inactive) in the assay on OVCAR-5; > 10 µM (inactive) with OVCAR-8; 56.4 µM (inactive) with SF-268; > 10 µM (inactive) with SF-295. Further, the GI50 is 41.8 µM (inactive) in the assay on SK-MEL-5, 59.8 µM (inactive) in the assay with SNB-75, 38.4 µM (inactive) with SR and > 100 µM (inactive) in the assay on U-251.
